In the experiment the test system is LPS from E. coli (O55:B5). Nature of the experiment: Isothermal titration calorimetry (ITC), LPS binding. Particulars: compound (1 mM) into LPS (20 µM), 20 mM HEPES pH 7, 37 °C, mean and SD of three experiments. The protocol: Stock solutions of LPS (10 mg/mL, 0.5 mM) were prepared in 20 mM HEPES at pH 7 by suspension, sonication, and temperature cycling between 4 and 60 °C and stored overnight prior to use. LPS from E. coli (O55:B5) was used. Lipopeptide solutions (1 mM in 20 mM HEPES, pH 7) were titrated into a suspension of LPS (0.020 mM) in the same buffer. Control titrations included the titration of peptide into buffer and buffer into the LPS suspension to determine the corresponding heat of dilution. All binding experiments were performed using a MicroCal PEAQ-ITC Automated microcalorimeter (Malvern Panalytical Ltd., Malvern, UK). The samples were equilibrated to 37 °C prior to measurement. The titrations were conducted at 37 °C under constant stirring at 750 rpm. Each experiment consisted of an initial injection of 0.3 μL followed by 25 separate injections of 1.5 μL into the sample cell of 200 μL. The time between each injection was 180 s, and the measurements were performed with the reference power set at 5 μcal s^–1 and the feedback mode set at “low”. For all calculations performed, an estimated molecular weight of 20 kDa for LPS was applied. The calorimetric data thus obtained were analyzed using MicroCal PEAQ-ITC Analysis Software Version 1.20 (Malvern Panalytical Ltd., Malvern, UK), where the integrated heat signal is corrected for the heat of dilution of the titrant.
Background: In ITC the heat of successive injections is recorded.

Positions of bridges follow the written chain, without caps; N, C: chain ends. Non-standard residues stand in square brackets, D forms with d. Residues, ends and D or L forms follow the SMILES beside them. *: point of attachment. dDab = NCC[C@@H](N)C(=O)O; Heptanoyl = CCCCCCC(=O)*

In the case of `CCCCCCC(=O)N[C@H](CCN)C(=O)N[C@@H](C(=O)N[C@H](CCN)C(=O)N[C@@H]1CCNC(=O)[C@@H]([C@H](C)O)NC(=O)[C@@H](CCN)NC(=O)[C@@H](CCN)NC(=O)[C@@H](CC(C)C)NC(=O)[C@H](Cc2ccccc2)NC(=O)[C@@H](CCN)NC1=O)[C@H](C)O` [ent-PmxB4] (Heptanoyl-[dDab][dT][dDab][dDab][dDab]F[dL][dDab][dDab][dT]; lactam 4-C), the “ΔΔH, maximum enthalpy observed after subtraction of dilution control” value is -3.485 kcal/mol.
